Source: patent publication US8497245B2, “Trypsin-like serine protease inhibitors, their preparation and use as selective inhibitors of the clotting factors IIa and Xa” (The Medicines Company (Leipzig) GmbH, priority 2010, dated 2013)
Where a name gives a salt, the structure may show the parent alone.

Key:
Format in all cases: biochemical
[1] = target: T1, Subcomponent "s" of Human Complement Component 1 (h C1s) (Homo sapiens, UniProt P09871); test: Inhibition of human C1s (reference enzyme); conditions: S-2314 substrate; read-out: Ki h Cls
T1 construct: purchased Calbiochem
T1 sequence (P09871 438-688 limits assumed): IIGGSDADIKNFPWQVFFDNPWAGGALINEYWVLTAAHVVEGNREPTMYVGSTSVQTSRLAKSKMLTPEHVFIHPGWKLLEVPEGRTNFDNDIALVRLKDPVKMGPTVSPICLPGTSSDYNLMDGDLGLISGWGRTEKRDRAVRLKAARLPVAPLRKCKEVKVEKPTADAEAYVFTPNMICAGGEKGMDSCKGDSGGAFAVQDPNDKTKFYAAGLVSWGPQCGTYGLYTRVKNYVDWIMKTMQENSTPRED
T1 sequence (P09871 16-437 partner limits assumed): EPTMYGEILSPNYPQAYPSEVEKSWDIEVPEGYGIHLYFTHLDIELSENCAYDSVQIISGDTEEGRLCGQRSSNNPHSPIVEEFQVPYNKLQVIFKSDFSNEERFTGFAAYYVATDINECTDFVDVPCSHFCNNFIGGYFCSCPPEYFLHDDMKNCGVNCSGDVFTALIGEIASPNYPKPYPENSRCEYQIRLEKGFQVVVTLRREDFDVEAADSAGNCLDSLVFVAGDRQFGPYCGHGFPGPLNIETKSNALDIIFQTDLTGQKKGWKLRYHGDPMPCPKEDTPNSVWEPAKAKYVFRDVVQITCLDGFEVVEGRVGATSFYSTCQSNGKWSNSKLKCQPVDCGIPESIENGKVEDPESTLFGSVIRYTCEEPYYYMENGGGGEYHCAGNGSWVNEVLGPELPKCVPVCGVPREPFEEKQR
Protocol: (§1) The inhibitory effect against the individual purified enzymes was determined in analogy to a previously disclosed method (Stürzebecher et al., J. Med. Chem., 40, 3091-3099 (1997)).
(§2) The release of p-nitroaniline (p-NA, the chromogenic product of the proteolytic activity), was determined by change in absorbance at 405 nm. The equilibrium rates were used to calculate the inhibitor/enzyme dissociation constant (Ki values) by parameter fitting in accordance with the rate equation for competitive inhibition using GraFit (version 4 from Erithacus). The results are reported as Ki values (nanomolar) in table 7 and are the average of at least three determinations.
(§3) Dissociation constants were calculated as described herein.

[2] = target: T2, Human plasma kallikrein (h PK) (Homo sapiens, UniProt P03952); test: Inhibition of human plasma kallikrein (reference enzyme); conditions: S2302 substrate
T2 construct: purchased Enzyme Research Laboratories
T2 sequence (P03952 391-638 limits assumed): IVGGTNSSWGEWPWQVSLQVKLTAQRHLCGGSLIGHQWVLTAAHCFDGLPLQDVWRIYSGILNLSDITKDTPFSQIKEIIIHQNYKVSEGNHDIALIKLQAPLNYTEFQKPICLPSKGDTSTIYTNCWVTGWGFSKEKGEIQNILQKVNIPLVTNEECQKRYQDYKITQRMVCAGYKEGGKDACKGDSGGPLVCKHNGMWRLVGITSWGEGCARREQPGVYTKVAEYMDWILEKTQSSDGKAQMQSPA
T2 sequence (P03952 20-390 partner limits assumed): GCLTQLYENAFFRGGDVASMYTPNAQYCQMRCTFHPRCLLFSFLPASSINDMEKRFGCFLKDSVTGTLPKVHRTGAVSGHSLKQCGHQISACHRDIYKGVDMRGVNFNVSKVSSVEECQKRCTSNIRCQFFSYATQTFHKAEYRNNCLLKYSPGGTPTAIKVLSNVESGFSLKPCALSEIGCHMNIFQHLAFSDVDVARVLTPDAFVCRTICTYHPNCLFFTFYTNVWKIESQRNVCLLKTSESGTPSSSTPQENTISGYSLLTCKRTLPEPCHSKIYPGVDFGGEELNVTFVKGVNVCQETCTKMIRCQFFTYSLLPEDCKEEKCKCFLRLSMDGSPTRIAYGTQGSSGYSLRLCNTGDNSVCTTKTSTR
Protocol: as §1, §2, §3

[3] = target: T3, Human Activated Protein C (h aPC) (Homo sapiens, UniProt P04070); test: Inhibition of human activated protein C (reference enzyme); conditions: Pefachrome PCa substrate
T3 construct: purchased Enzyme Research Laboratories
T3 sequence (P04070 212-450 limits assumed): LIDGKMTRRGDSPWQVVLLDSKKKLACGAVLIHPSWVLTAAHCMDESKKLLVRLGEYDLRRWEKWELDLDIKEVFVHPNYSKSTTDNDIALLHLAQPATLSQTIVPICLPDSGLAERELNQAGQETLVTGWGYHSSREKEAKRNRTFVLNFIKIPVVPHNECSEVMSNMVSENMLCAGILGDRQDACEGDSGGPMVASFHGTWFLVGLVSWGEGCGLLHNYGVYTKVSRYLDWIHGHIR
T3 sequence (P04070 43-197 partner limits assumed): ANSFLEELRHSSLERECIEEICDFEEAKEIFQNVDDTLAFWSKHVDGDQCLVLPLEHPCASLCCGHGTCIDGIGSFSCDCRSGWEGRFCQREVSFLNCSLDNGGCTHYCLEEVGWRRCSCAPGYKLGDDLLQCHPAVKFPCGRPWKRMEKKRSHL
Protocol: as §1, §2, §3

[4] = target: T4, Human urinary kallikrein (h uKK) (Homo sapiens, UniProt P06870); test: Inhibition of human urinary kallikrein (reference enzyme); conditions: S-2266 substrate
T4 construct: purchased Lee Biosolutions
T4 sequence (P06870 25-262): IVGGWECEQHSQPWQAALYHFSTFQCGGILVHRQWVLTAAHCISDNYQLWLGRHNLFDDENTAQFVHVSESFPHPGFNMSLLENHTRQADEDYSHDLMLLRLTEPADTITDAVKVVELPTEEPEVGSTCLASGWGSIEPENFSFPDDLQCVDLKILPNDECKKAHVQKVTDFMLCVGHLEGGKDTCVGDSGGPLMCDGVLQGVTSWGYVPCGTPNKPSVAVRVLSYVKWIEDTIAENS
Protocol: as §1, §2, §3

[5] = target: T5, Human urokinase type plasminogen activator (h u-PA) (Homo sapiens, UniProt P00749); test: Inhibition of human urokinase type plasminogen activator (reference enzyme); conditions: H-Glu-Gly-Arg-pNA substrate
T5 construct: purchased MEDAC GmbH Urokinase HS medac
Protocol: as §1, §2, §3

[6] = target: T6, Subcomponent "r" of Human Complement Component 1 (h C1r) (Homo sapiens, UniProt P00736); test: Inhibition of human C1r (reference enzyme); conditions: S-2314 substrate; read-out: Ki h Clr
T6 construct: purchased Calbiochem
T6 sequence (P00736 464-705 limits assumed): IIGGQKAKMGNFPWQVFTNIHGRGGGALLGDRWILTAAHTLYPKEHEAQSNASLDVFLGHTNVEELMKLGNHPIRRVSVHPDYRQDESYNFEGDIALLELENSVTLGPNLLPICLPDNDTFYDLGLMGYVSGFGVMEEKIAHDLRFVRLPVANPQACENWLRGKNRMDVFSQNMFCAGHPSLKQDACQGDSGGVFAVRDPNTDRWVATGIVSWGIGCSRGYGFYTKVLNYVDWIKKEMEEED
T6 sequence (P00736 18-463 partner limits assumed): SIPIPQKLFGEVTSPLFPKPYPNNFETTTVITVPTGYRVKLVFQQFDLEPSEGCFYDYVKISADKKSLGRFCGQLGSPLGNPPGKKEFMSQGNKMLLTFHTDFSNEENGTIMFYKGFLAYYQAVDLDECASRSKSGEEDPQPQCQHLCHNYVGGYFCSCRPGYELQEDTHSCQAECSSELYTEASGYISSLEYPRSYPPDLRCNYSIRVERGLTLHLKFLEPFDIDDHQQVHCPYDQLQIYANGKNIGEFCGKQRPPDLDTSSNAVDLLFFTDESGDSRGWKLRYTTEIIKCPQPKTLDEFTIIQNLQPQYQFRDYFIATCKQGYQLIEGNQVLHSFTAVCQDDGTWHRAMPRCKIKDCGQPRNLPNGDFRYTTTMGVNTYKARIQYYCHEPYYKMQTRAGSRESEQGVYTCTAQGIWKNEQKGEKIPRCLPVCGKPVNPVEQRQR
Protocol: as §1, §2, §3

[7] = target: T7, human Factor Xa (Homo sapiens, UniProt P00742); test: Inhibition constants for human factor Xa, chromogenic substrate assay; conditions: 25° C., Pefachrome FXa substrate, average of at least three determinations; read-out: Ki h FXa
T7 construct: human Factor Xa from Enzyme Research Laboratories; purchased Enzyme Research Laboratories
T7 sequence (P00742 235-488 limits assumed): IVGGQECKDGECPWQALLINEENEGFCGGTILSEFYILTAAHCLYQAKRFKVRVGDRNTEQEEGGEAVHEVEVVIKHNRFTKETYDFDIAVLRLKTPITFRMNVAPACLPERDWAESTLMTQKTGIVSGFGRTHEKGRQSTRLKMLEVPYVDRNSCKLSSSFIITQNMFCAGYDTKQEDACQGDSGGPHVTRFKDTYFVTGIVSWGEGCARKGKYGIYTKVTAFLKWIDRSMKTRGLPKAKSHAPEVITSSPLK
T7 sequence (P00742 41-179 partner limits assumed): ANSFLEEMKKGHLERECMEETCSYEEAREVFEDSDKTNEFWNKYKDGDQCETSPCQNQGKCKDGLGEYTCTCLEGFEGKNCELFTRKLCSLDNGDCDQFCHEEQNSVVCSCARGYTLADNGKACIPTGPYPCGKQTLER
Protocol: as §1
(§4) 200 μL of TBS (0.05 M trishydroxymethylaminomethane; 0.154 M NaCl, 2% ethanol, pH 8.0)
as §2

[8] = target: T8, Human plasmin (h plasmin) (Homo sapiens, UniProt P00747); test: Inhibition of human plasmin (reference enzyme); conditions: Chromozym PL substrate
T8 construct: purchased Calbiochem
T8 sequence (P00747 581-810 limits assumed): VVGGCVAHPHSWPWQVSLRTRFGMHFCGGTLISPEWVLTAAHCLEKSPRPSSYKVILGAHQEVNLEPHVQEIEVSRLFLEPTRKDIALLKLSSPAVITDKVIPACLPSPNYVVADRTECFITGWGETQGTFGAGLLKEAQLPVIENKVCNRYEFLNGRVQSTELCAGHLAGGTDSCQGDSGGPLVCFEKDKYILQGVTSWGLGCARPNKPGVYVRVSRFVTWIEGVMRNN
T8 sequence (P00747 97-580 partner limits assumed): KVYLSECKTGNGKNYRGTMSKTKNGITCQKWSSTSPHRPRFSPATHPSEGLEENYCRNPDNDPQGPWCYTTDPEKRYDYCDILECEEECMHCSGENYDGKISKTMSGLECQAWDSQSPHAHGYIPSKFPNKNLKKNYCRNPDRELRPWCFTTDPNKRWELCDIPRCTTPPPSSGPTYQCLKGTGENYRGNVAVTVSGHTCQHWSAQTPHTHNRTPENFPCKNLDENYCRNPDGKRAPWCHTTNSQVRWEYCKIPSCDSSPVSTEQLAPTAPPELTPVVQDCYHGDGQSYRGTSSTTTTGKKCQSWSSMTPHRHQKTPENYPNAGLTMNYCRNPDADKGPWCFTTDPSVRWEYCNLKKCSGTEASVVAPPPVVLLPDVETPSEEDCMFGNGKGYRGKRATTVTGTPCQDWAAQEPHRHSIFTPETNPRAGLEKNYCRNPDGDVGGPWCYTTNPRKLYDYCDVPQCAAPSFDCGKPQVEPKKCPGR
Protocol: as §1, §2, §3

[9] = target: T9, human factor IIa (human alpha-thrombin) (Homo sapiens, UniProt P00734); test: Inhibition constants for human factor IIa, chromogenic substrate assay; conditions: 25° C., Pefachrome tPA substrate, average of at least three determinations; read-out: Ki h FIIa
T9 construct: human alpha-thrombin from Enzyme Research Laboratories; purchased Enzyme Research Laboratories
Protocol: as §1, §4, §2

[10] = target: T10, Human tissue-type plasminogen activator (h t-PA) (Homo sapiens, UniProt P00750); test: Inhibition of human tissue-type plasminogen activator (reference enzyme); conditions: Pefachrome tPA substrate; read-out: Ki h t-PA
T10 construct: purchased Boehringer Ingelheim Actilyse
T10 sequence (P00750 36-562): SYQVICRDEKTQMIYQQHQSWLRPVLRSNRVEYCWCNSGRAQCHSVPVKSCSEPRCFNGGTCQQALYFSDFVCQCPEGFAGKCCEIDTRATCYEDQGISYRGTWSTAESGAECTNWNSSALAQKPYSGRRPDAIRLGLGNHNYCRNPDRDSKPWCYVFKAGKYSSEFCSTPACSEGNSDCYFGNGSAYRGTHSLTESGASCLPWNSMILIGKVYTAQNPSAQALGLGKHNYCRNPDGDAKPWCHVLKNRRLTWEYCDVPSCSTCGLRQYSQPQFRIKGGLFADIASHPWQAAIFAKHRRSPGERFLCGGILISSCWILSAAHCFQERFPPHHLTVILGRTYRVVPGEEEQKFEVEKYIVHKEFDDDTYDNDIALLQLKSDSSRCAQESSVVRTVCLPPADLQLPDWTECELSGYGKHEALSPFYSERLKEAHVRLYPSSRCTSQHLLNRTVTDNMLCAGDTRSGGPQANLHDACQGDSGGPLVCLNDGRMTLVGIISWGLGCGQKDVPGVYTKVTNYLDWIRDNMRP
Protocol: The equilibrium rates were used to calculate the inhibitor/enzyme dissociation constant (Ki values) by parameter fitting in accordance with the rate equation for competitive inhibition using GraFit (version 4 from Erithacus).
as §3

Compound	Ki [1]	Ki [2]	Ki [3]	Ki [4]	Ki [5]	Ki [6]	Ki [7]	Ki [8]	Ki [9]	Ki [10]
CN(CC1CCOCC1)C(=O)C[C@@H](NS(=O)(=O)Cc1ccccc1)C(=O)N1CCC[C@H]1C(=O)NCc1cc(Cl)ccc1CN [Compound 2.47, Bzls-D-Asp((tetrahydro-2H-pyran-4-yl)-N-methylmethanamine)-L-Pro-Amb(2-AMe-5-Cl)×2 TFA]	> 100 µM	0.304 µM	> 100 µM	> 20 µM	> 100 µM	> 10 µM	0.002 µM	> 15 µM	0.00032 µM	> 50 µM
NCc1ccc(Cl)cc1CNC(=O)[C@@H]1CCCCN1C(=O)[C@@H](CCC(=O)N1CCOCC1)NS(=O)(=O)Cc1ccccc1 [Compound 2.15]	> 50 µM	7.2 µM	> 10 µM	> 10 µM	> 50 µM	> 20 µM	0.0094 µM	> 5 µM	0.0007 µM	> 10 µM
NCc1ccc(Cl)cc1CNC(=O)[C@@H]1CCCN1C(=O)[C@@H](CCC(=O)O)NS(=O)(=O)Cc1ccccc1 [Compound 2.29]	> 50 µM	> 20 µM	> 25 µM		> 100 µM	> 10 µM	0.093 µM	> 15 µM	0.0033 µM	> 20 µM
NCc1ccc(Cl)cc1CNC(=O)[C@@H]1CCCN1C(=O)[C@@H](CC(=O)N1CCSCC1)NS(=O)(=O)Cc1ccccc1 [Compound 2.37]	> 80 µM	0.413 µM	> 40 µM		> 20 µM	> 200 µM	0.00054 µM	6 µM	0.00049 µM	19 µM
NCc1ccc(Cl)cc1CNC(=O)[C@@H]1CCCN1C(=O)[C@@H](CC(=O)N1CC[S+]([O-])CC1)NS(=O)(=O)Cc1ccccc1 [Compound 2.38]	> 80 µM	0.614 µM	> 50 µM		> 60 µM	> 200 µM	0.0055 µM		0.0078 µM	> 20 µM
CC(=O)N1CCN(C(=O)C[C@@H](NS(=O)(=O)Cc2ccccc2)C(=O)N2CCC[C@H]2C(=O)NCc2cc(Cl)ccc2CN)CC1 [Compound 2.40]	> 80 µM	0.478 µM	> 100 µM		> 50 µM	> 50 µM	0.0024 µM	9 µM	0.0063 µM	> 20 µM
CC(=O)N1CCC(N(C)C(=O)CC[C@@H](NS(=O)(=O)Cc2ccccc2)C(=O)N2CCC[C@H]2C(=O)NCc2cc(Cl)ccc2CN)CC1 [Compound 2.28]	> 20 µM		> 50 µM	> 100 µM	> 20 µM	> 100 µM	0.036 µM	5.56 µM	0.00057 µM	> 100 µM
NCc1ccc(Cl)cc1CNC(=O)[C@@H]1CCCN1C(=O)[C@@H](CC(=O)N1CCOCC1)NS(=O)(=O)Cc1ccccc1 [Compound 2.36]	> 100 µM	0.565 µM	> 100 µM		> 40 µM	> 30 µM	0.00038 µM	> 12 µM	0.00034 µM	18 µM

Next, values leading:

Ki [1]	Ki [2]	Ki [3]	Ki [4]	Ki [5]	Ki [6]	Ki [7]	Ki [8]	Ki [9]	Ki [10]	Compound
> 50 µM	0.93 µM	> 25 µM	> 200 µM	> 100 µM	> 50 µM	0.0025 µM	> 10 µM	0.0012 µM	> 20 µM	NCc1ccc(Cl)cc1CNC(=O)[C@@H]1CCCN1C(=O)[C@@H](CC(=O)N1CC[C@@H](O)C1)NS(=O)(=O)Cc1ccccc1 [Compound 2.9]
> 20 µM	0.83 µM	> 20 µM	> 100 µM	> 100 µM	> 20 µM	0.0011 µM	> 10 µM	0.0009 µM	> 10 µM	NCc1ccc(Cl)cc1CNC(=O)[C@@H]1CCCN1C(=O)[C@@H](CC(=O)N1CC[C@H](O)C1)NS(=O)(=O)Cc1ccccc1 [Compound 2.10]
> 100 µM	3.35 µM	> 50 µM	> 50 µM	> 20 µM	> 50 µM	0.014 µM	> 100 µM	0.0059 µM	> 100 µM	NCc1ccc(Cl)cc1CNC(=O)[C@@H]1CCCN1C(=O)[C@@H](CC(=O)N1CC[C@@H](N)C1)NS(=O)(=O)Cc1ccccc1 [Compound 2.11]
> 30 µM	1.69 µM	> 25 µM	> 20 µM	> 50 µM	> 100 µM	0.014 µM	> 25 µM	0.0029 µM	> 100 µM	NCc1ccc(Cl)cc1CNC(=O)[C@@H]1CCCN1C(=O)[C@@H](CC(=O)N1CC[C@H](N)C1)NS(=O)(=O)Cc1ccccc1 [Compound 2.12]
> 60 µM	8.56 µM	> 30 µM	> 20 µM	> 100 µM	> 30 µM	0.0014 µM	> 100 µM	0.0051 µM	> 40 µM	NCc1ccc(Cl)cc1CNC(=O)[C@@H]1CNCCN1C(=O)[C@@H](CC(=O)N1CCCCC1)NS(=O)(=O)Cc1ccccc1 [Compound 2.13]
> 50 µM	0.17 µM	> 100 µM	> 20 µM	> 100 µM	> 25 µM	0.0079 µM	> 10 µM	0.0015 µM	> 50 µM	CN1CCN(C(=O)C[C@@H](NS(=O)(=O)Cc2ccccc2)C(=O)N2CCC[C@H]2C(=O)NCc2cc(Cl)ccc2CN)CC1 [Compound 2.18]
> 20 µM	0.8 µM	> 10 µM	> 100 µM	> 100 µM	> 100 µM	0.017 µM		0.0025 µM	26.8 µM	NCc1ccc(Cl)cc1CNC(=O)[C@@H]1CCCN1C(=O)[C@@H](CC(=O)Nc1cc[n+]([O-])cc1)NS(=O)(=O)Cc1ccccc1 [Compound 2.48, Bzls-D-Asp(1-oxido-4-amino-pyridine)-L-Pro-Amb(2-AMe-5-Cl)]
		> 0.5 µM				0.0154 µM		0.0186 µM		NCc1ccc(Cl)cc1CNC(=O)[C@@H]1CCCN1C(=O)[C@@H](CC(=O)N1CCS(=O)(=O)CC1)NS(=O)(=O)Cc1ccccc1 [Compound 2.39]
